# According to US11535609B2, “Pyrazine-2(1H)-ketone compound preparation method” (ZHANGZHOU PIEN TZE HUANG PHARMACEUTICAL CO., LTD., priority 2019, dated 2022):
# Tests used:
# wild-type FGFR = experiment: Inhibitory activity of wild-type kinase in vitro (overall conclusion); format: biochemical, human; details: conclusion in words
# Experimental: The IC50 value was determined using ^33P isotope-labeled kinase activity test (Reaction Biology Corp) to evaluate the inhibitory ability of the compounds to be tested on human FGFR4 and VEGFR2.
# Buffer conditions: 20 mM 4-(2-hydroxyethyl)-1-piperazineethanesulfonic acid (Hepes) (pH 7.5), 10 mM MgCl2, 1 mM ethylene glycol-bis-(2-aminoethyl ether)tetra acetic acid (EGTA), 0.02% polyoxyethylene lauryl ether (Brij35), 0.02 mg/ml bovine serum albumin (BSA), 0.1 mM sodium vanadate (Na3VO4), 2 mM dithiothreitol (DTT), 1% DMSO.
# Experimental steps: At room temperature, the compounds to be tested were dissolved in DMSO to prepare a 10 mM solution for use. The substrate was dissolved in the freshly prepared buffer, and the kinase to be tested was added thereto and mixed well. The DMSO solution in which the compounds to be tested were dissolved was added to the above-mentioned homogeneous reaction solution using acoustic technology (Echo 550). The compound concentration in the reaction solution is 10 μM, 3.33 μM, 1.11 μM, 0.370 μM, 0.123 μM, 41.2 nM, 13.7 nM, 4.57 nM, 1.52 nM, 0.508 nM, or 10 μM, 2.50 μM, 0.62 μM, 0.156 μM, 39.1 nM, 9.8 nM, 2.4 nM, 0.61 nM, 0.15 nM, 0.038 nM. […] After the filter paper was repeatedly washed with 0.75% phosphoric acid solution, the radioactivity of the phosphorylated substrate remaining on the filter paper was measured. […]
# [1] = Pharmacokinetics in mice, single gavage; format: in vivo, CD-1 mouse (male)
# Experimental: Experimental purpose: To test the pharmacokinetics of the compound in mice
# CD-1 mouse (male), vehicle (0.5% (w/v) methylcellulose 0.5% (v/v) Tween 80 aqueous solution), trifluoroacetate of compound 0027.
# The vehicle was an aqueous solution of 0.5% (w/v) methylcellulose and 0.5% (v/v) Tween 80, and it was prepared according to the following procedure:
# Formulation of Preparations for Intragastric Administration: […]
# a. An appropriate amount of the test product was weighed and put into a glass bottle;
# b. 70% volume of vehicle (0.5% (w/v) methyl cellulose 0.5% (v/v) Tween 80 aqueous solution) was added;
# c. The preparation was stirred until it was visually homogeneous, and subjected to ultrasound in water bath as needed;
# e. Make up the remaining volume of 0.5% methylcellulose+0.5% Tween 80, and the mixture was stirred until being visually homogeneous.
# Animals in groups 1 and 2 were administrated 5 mg/mL and 30 mg/mL compounds by single gavage, with a dose volume of 10 mL/kg.
# The body weight of the animals was weighed before administration, and the administration volume was calculated based on the body weight.
# Whole blood samples (30 μL) were collected at the prescribed time (0.25, 0.5, 1, 2, 4, 6, 8, 24 h) through saphenous vein blood collection, and the actual blood collection time was recorded in the test record. The acceptable error of the collection time point was a time point within 1 hour of the administration ±1 minute, and the acceptable error of other time points is a theoretical time ±5%.
# All blood samples were immediately transferred to labeled commercial centrifuge tubes containing K2-EDTA. After being collected, the blood samples were centrifuged at 3200 rpm for 10 minutes at 4° C. to aspirate the supernatant plasma, which was quickly placed in dry ice, kept at −20° C. or a lower temperature for LC-MS/MS analysis. The pharmacokinetic parameters were calculated.
smiles,measurement,setting,value
COc1cc(OC)c(Cl)c(-c2nc(-c3nc(-c4cn(C)nc4C)cnc3N)cn(C)c2=O)c1,inhibitory activity against wild-type FGFR,wild-type FGFR,good inhibitory activity
same,selectivity towards FGFR2 and FGFR3 compared to FGFR1 and FGFR4,wild-type FGFR,relative high selectivity
same,AUC0-inf,"[1]; CD-1 mouse, gavage, 50 mpk",95.847 µM·h
same,AUC0-last,"[1]; CD-1 mouse, gavage, 50 mpk",85.826 µM·h
same,MRT0-inf,"[1]; CD-1 mouse, gavage, 50 mpk",5.39 h
same,MRT0-last,"[1]; CD-1 mouse, gavage, 50 mpk",4.33 h
same,T1/2,"[1]; CD-1 mouse, gavage, 50 mpk",2.46 h
same,Tmax,"[1]; CD-1 mouse, gavage, 50 mpk",1.00 h
same,AUC0-last,"[1]; CD-1 mouse, gavage, 300 mpk",699.413 µM·h
same,MRT0-last,"[1]; CD-1 mouse, gavage, 300 mpk",11.1 h
same,Tmax,"[1]; CD-1 mouse, gavage, 300 mpk",7.00 h
same,pharmacokinetic indexes in mice,[1]; conclusion in words,good pharmacokinetic indexes
